# Target: T1, Recombinant human TPH1 (MBP tagged) (Homo sapiens, UniProt P17752)
# T1 construct: cloning full length human TPH1 cDNA in to a bacterial pMAL-c5E expression vector; made in house; host or cells: E. coli BL21 (DE3)
# T1 sequence (P17752 1-444): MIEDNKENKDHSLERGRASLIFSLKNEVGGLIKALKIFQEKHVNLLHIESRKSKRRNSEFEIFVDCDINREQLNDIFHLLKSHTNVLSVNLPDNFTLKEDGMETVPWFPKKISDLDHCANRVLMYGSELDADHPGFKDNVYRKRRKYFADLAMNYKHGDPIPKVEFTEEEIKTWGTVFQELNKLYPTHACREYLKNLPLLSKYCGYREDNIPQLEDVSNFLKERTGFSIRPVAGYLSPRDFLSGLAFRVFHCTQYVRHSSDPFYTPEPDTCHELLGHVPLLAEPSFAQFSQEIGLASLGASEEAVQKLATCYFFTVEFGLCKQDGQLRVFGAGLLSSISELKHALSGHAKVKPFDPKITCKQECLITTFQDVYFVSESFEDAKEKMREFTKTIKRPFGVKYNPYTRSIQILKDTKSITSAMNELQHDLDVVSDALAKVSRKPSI
# Test: TPH1 in vitro inhibition assay (kinetic fluorescence)
# Assay type: biochemical
# Conditions: read-out: TPH1 Range (TPH1 inhibition IC50)
# Method in brief: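 Final mix: 15 nM MBP-TPH1, 30 μM Trp, 36 μM 6-methyltetrahydropterin, 25 μM ferrous ammonium sulfate, 50 mM MES pH 7.1, 1% DMSO, room temperature.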
row,IC50,Compound
1,< 0.05 µM,"Cc1ccn(-c2ccc(-c3ccc(Cl)cc3)cc2[C@@H](Oc2cc(N3CCC4(CC3)CN[C@H](C(=O)O)C4)nc(N)n2)C(F)(F)F)n1 [Example 19q, (S)-8-(2-amino-6-((R)-1-(4′-chloro-4-(3-methyl-1H-pyrazol-1-yl)-[1,1′-biphenyl]-3-yl)-2,2,2-trifluoroethoxy)pyrimidin-4-yl)-2,8-diazaspiro[4.5] decane-3-carboxylic acid]"
2,< 0.05 µM,"Cc1ccn(-c2ccc(-c3ccc(CO)cc3)cc2[C@@H](Oc2cc(N3CCC4(CC3)CN[C@H](C(=O)O)C4)nc(N)n2)C(F)(F)F)n1 [Example 19r, (S)-8-(2-amino-6-((R)-2,2,2-trifluoro-1-(4′-(hydroxymethyl)-4-(3-methyl-1H-pyrazol-1-yl)-[1,1′-biphenyl]-3-yl)ethoxy)pyrimidin-4-yl)-2,8-diazaspiro[4.5]decane-3-carboxylic acid]"
3,< 0.05 µM,"CCOC(=O)c1ccccc1-c1ccc(-n2ccc(C)n2)c([C@@H](Oc2cc(N3CCC4(CC3)CN[C@H](C(=O)O)C4)nc(N)n2)C(F)(F)F)c1 [Example 20, (S)-8-(2-amino-6-((R)-1-(2′-(ethoxycarbonyl)-4-(3-methyl-1H-pyrazol-1-yl)-[1,1′-biphenyl]-3-yl)-2,2,2-trifluoroethoxy)pyrimidin-4-yl)-2,8-diazaspiro[4.5]decane-3-carboxylic acid]"
4,< 0.05 µM,"CCOC(=O)c1ccc(-c2ccc(-n3ccc(C)n3)c([C@@H](Oc3cc(N4CCC5(CC4)CN[C@H](C(=O)O)C5)nc(N)n3)C(F)(F)F)c2)cc1 [Example 21, (S)-8-(2-amino-6-((R)-1-(4′-(ethoxycarbonyl)-4-(3-methyl-1H-pyrazol-1-yl)-[1,1′-biphenyl]-3-yl)-2,2,2-trifluoroethoxy)pyrimidin-4-yl)-2,8-diazaspiro[4.5]decane-3-carboxylic acid]"
5,< 0.05 µM,"CCc1ccc(-n2ccc(C)n2)c([C@@H](Oc2cc(N3CCC4(CC3)CN[C@H](C(=O)O)C4)nc(N)n2)C(F)(F)F)c1 [Example 22a, (S)-8-(2-amino-6-((R)-1-(5-ethyl-2-(3-methyl-H-pyrazol-1-yl)phenyl)-2,2,2-trifluoroethoxy)pyrimidin-4-yl)-2,8-diazaspiro[4.5]decane-3-carboxylic acid]"
6,< 0.05 µM,CCCc1ccc(-n2ccc(C)n2)c([C@@H](Oc2cc(N3CCC4(CC3)CN[C@H](C(=O)O)C4)nc(N)n2)C(F)(F)F)c1 [Example 22b]
7,< 0.05 µM,"CCOC(=O)c1ccc(-n2ccc(C)n2)c([C@@H](Oc2cc(N3CCC4(CC3)CN[C@H](C(=O)O)C4)nc(N)n2)C(F)(F)F)c1 [Example 23, (S)-8-(2-Amino-6-((R)-1-(5-(ethoxycarbonyl)-2-(3-methyl-1H-pyrazol-1-yl)phenyl)-2,2,2-trifluoroethoxy)pyrimidin-4-yl)-2,8-diazaspiro[4.5]decane-3-carboxylic acid]"
8,0.05 to 0.3 µM,"Cc1ccn(-c2ccc(C(=O)O)cc2[C@@H](Oc2cc(N3CCC4(CC3)CN[C@H](C(=O)O)C4)nc(N)n2)C(F)(F)F)n1 [Example 24, (S)-8-(2-Amino-6-((R)-1-(5-carboxy-2-(3-methyl-H-pyrazol-1-yl)phenyl)-2,2,2-trifluoroethoxy)pyrimidin-4-yl)-2,8-diazaspiro[4.5]decane-3-carboxylic acid]"
9,< 0.05 µM,"Cc1ccn(-c2cc(CO)ccc2[C@@H](Oc2cc(N3CCC4(CC3)CN[C@H](C(=O)O)C4)nc(N)n2)C(F)(F)F)n1 [Example 25, (S)-8-(2-Amino-6-((R)-2,2,2-trifluoro-1-(4-(hydroxymethyl)-2-(3-methyl-H-pyrazol-1-yl)phenyl)ethoxy)pyrimidin-4-yl)-2,8-diazaspiro[4.5]decane-3-carboxylic acid]"
10,3 to 10 µM,"Cc1ccn(-c2cc(CN(C)C)ccc2[C@@H](Oc2cc(N3CCC4(CC3)CN[C@H](C(=O)O)C4)nc(N)n2)C(F)(F)F)n1 [Example 26, (S)-8-(2-amino-6-((R)-1-(4-((dimethylamino)methyl)-2-(3-methyl-H-pyrazol-1-yl)phenyl)-2,2,2-trifluoroethoxy)pyrimidin-4-yl)-2,8-diazaspiro[4.5]decane-3-carboxylic acid]"
11,0.05 to 0.3 µM,"Cc1ccn(-c2cc(Br)ccc2[C@@H](Oc2cc(N3CCC4(CC3)CN[C@H](C(=O)O)C4)nc(C)n2)C(F)(F)F)n1 [Example 27, (S)-8-(6-((R)-1-(4-Bromo-2-(3-methyl-1H-pyrazol-1-yl)phenyl)-2,2,2-trifluoroethoxy)-2-methylpyrimidin-4-yl)-2,8-diazaspiro[4.5]decane-3-carboxylic acid]"
12,< 0.05 µM,"COc1cc(-c2ccc([C@@H](Oc3cc(N4CCC5(CC4)CN[C@H](C(=O)O)C5)nc(C)n3)C(F)(F)F)c(-n3ccc(C)n3)c2)ccn1 [Example 29a, (S)-8-(2-methyl-6-((R)-2,2,2-trifluoro-1-(4-(2-methoxypyridin-4-yl)-2-(3-methyl-1H-pyrazol-1-yl)phenyl)ethoxy)pyrimidin-4-yl)-2,8-diazaspiro[4.5]decane-3-carboxylic acid]"
13,< 0.05 µM,"Cc1ccn(-c2cc(-c3ccc(S(C)(=O)=O)cc3)ccc2[C@@H](Oc2cc(N3CCC4(CC3)CN[C@H](C(=O)O)C4)nc(C)n2)C(F)(F)F)n1 [Example 29b, (S)-8-(2-methyl-6-((R)-2,2,2-trifluoro-1-(3-(3-methyl-1H-pyrazol-1-yl)-4′-(methylsulfonyl)-[1,1′-biphenyl]-4-yl)ethoxy)pyrimidin-4-yl)-2,8-diazaspiro[4.5]decane-3-carboxylic acid]"
14,0.05 to 0.3 µM,"Cc1ccn(-c2cc(-c3ccc(F)c(F)c3)ccc2[C@@H](Oc2cc(N3CCC4(CC3)CN[C@H](C(=O)O)C4)nc(C)n2)C(F)(F)F)n1 [Example 29c, (S)-8-(6-((R)-1-(3′,4′-difluoro-3-(3-methyl-1H-pyrazol-1-yl)-[1,1′-biphenyl]-4-yl)-2,2,2-trifluoroethoxy)-2-methylpyrimidin-4-yl)-2,8-diazaspiro[4.5]decane-3-carboxylic acid]"
15,< 0.05 µM,"Cc1ccn(-c2cc(-c3ccc(C)c(C)c3)ccc2[C@@H](Oc2cc(N3CCC4(CC3)CN[C@H](C(=O)O)C4)nc(C)n2)C(F)(F)F)n1 [Example 29d, (S)-8-(6-((R)-1-(3′,4′-dimethyl-3-(3-methyl-1H-pyrazol-1-yl)-[1,1′-biphenyl]-4-yl)-2,2,2-trifluoroethoxy)-2-methylpyrimidin-4-yl)-2,8-diazaspiro[4.5]decane-3-carboxylic acid]"
16,0.05 to 0.3 µM,"CCOC(=O)c1cccc(-c2ccc([C@@H](Oc3cc(N4CCC5(CC4)CN[C@H](C(=O)O)C5)nc(C)n3)C(F)(F)F)c(-n3ccc(C)n3)c2)c1 [Example 29e, (S)-8-(6-((R)-1-(3′-(ethoxycarbonyl)-3-(3-methyl-1H-pyrazol-1-yl)-[1,1′-biphenyl]-4-yl)-2,2,2-trifluoroethoxy)-2-methylpyrimidin-4-yl)-2,8-diazaspiro[4.5]decane-3-carboxylic acid]"
17,< 0.05 µM,"COc1ccc(-c2ccc([C@@H](Oc3cc(N4CCC5(CC4)CN[C@H](C(=O)O)C5)nc(C)n3)C(F)(F)F)c(-n3ccc(C)n3)c2)cn1 [Example 29f, (S)-8-(2-methyl-6-((R)-2,2,2-trifluoro-1-(4-(6-methoxypyridin-3-yl)-2-(3-methyl-1H-pyrazol-1-yl)phenyl)ethoxy)pyrimidin-4-yl)-2,8-diazaspiro[4.5]decane-3-carboxylic acid]"
18,< 0.05 µM,"COc1ncc(-c2ccc([C@@H](Oc3cc(N4CCC5(CC4)CN[C@H](C(=O)O)C5)nc(C)n3)C(F)(F)F)c(-n3ccc(C)n3)c2)cn1 [Example 29g, (S)-8-(2-methyl-6-((R)-2,2,2-trifluoro-1-(4-(2-methoxypyrimidin-5-yl)-2-(3-methyl-1H-pyrazol-1-yl)phenyl)ethoxy)pyrimidin-4-yl)-2,8-diazaspiro[4.5]decane-3-carboxylic acid]"
19,< 0.05 µM,"COc1ccc(-c2ccc([C@@H](Oc3cc(N4CCC5(CC4)CN[C@H](C(=O)O)C5)nc(C)n3)C(F)(F)F)c(-n3ccc(C)n3)c2)c(OC)c1 [Example 29h, (S)-8-(6-((R)-1-(2′,4′-dimethoxy-3-(3-methyl-1H-pyrazol-1-yl)-[1,1′-biphenyl]-4-yl)-2,2,2-trifluoroethoxy)-2-methylpyrimidin-4-yl)-2,8-diazaspiro[4.5]decane-3-carboxylic acid]"
20,< 0.05 µM,"CCOC(=O)c1ccc(-c2ccc([C@@H](Oc3cc(N4CCC5(CC4)CN[C@H](C(=O)O)C5)nc(C)n3)C(F)(F)F)c(-n3ccc(C)n3)c2)cc1 [Example 29i, (S)-8-(6-((R)-1-(4′-(ethoxycarbonyl)-3-(3-methyl-1H-pyrazol-1-yl)-[1,1′-biphenyl]-4-yl)-2,2,2-trifluoroethoxy)-2-methylpyrimidin-4-yl)-2,8-diazaspiro[4.5]decane-3-carboxylic acid]"
21,< 0.05 µM,"Cc1ccn(-c2cc(-c3ccc(C(=O)N(C)C)cc3)ccc2[C@@H](Oc2cc(N3CCC4(CC3)CN[C@H](C(=O)O)C4)nc(C)n2)C(F)(F)F)n1 [Example 29j, (S)-8-(6-((R)-1-(4′-(dimethylcarbamoyl)-3-(3-methyl-1H-pyrazol-1-yl)-[1,1′-biphenyl]-4-yl)-2,2,2-trifluoroethoxy)-2-methylpyrimidin-4-yl)-2,8-diazaspiro[4.5]decane-3-carboxylic acid]"
